Results published in PMC8742467, “Therapeutical interference with the epigenetic landscape of germ cell tumors: a comparative drug study and new mechanistical insights” (Clinical Epigenetics, 2022).
pEC50: −log10 of the molar value. Read-outs that look alike come from different tables or passages of the source.

How the values were obtained:
GCT cell lines = experiment: XTT cell viability assay, GCT cell lines (pre-screen / summary); format: cell-based, Human; conditions: Homo sapiens, GCT
Outline: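 Cells (5 × 10^3 per well) are plated on day 0, then treated on day 1 with graded drug doses or vehicle. XTT conversion gives viability, from which EC50 is derived.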

TCam-2 (SE) = experiment: XTT cell viability assay, TCam-2; format: cell-based; conditions: Homo sapiens; after 48 h, XTT, n = 4; read-out: EC50 colour/symbol code, SE TCam-2
Method: (§1) The […] (XTT) assays were performed as described previously. In summary, for GCT and fibroblast cell lines 5 × 10^3 cells (3 × 10^3 for UC, PCa and RCC cell lines) per 96-well were seeded and different drug concentrations (see Additional file 2: Fig. S2, Additional file 3: Fig. S3) or corresponding solvents were added to the cells the following day. For drug details see Additional file 12: Table S2 C. Each condition was analyzed in four technical replicates and EC50 values were calculated by GraphPad Prism v8.

[1] = system: CC (choriocarcinoma) cell lines JAR, JEG-3, BeWo; experiment: XTT cell viability assay, CC cell lines; format: cell-based; conditions: Homo sapiens; after 48 h, mean per entity
Method: as §1

YST (GCT72) = experiment: Flow cytometry apoptosis (Annexin V/PI), YST; format: cell-based, Human; conditions: EC50, 16 h
Method: For Annexin V/PI staining, cells were washed with Annexin V Binding Buffer before being resuspended in 70 µl Annexin V Binding Buffer and 2.5 μl Annexin V FITC-conjugate (both Miltenyi Biotec, Bergisch Gladbach, Germany) and 15 µg PI (Sigma-Aldrich, Taufkirchen, Germany) and incubated in the dark at room temperature for 15 min. 500 µl of Annexin V Binding Buffer was added before measurement. For the cell cycle analysis, cells were washed with PBS (phosphate buffered saline), fixed by ice cold 70% ethanol and stained with 2 µg/ml PI and 200 µg/ml RNaseA (Quiagen, Hilden, Germany 100 mg/ml) in PBS shortly before every measurement. At least 5 × 10^4 cells were counted and analyzed using the MACSQuant software v 2.13.0.

2102EP-R = experiment: Flow cytometry apoptosis (Annexin V/PI), 2102EP-R; format: cell-based, Human; conditions: EC50, 16 h, compared to the parental cell line
[2] = system: histone modifications in 2102EP cells; experiment: Mass spectrometry analysis of histone modifications (Mod Spec); format: cell-based, Human
Outline: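 2102EP cells were treated for 16 h with EC50 concentrations of Quisinostat, JIB-04, Chaetocin, MZ-1, LP99, PRT4165 or GSK343, with DMSO as solvent control. After trypsin harvest, histones were extracted and analysed by mass spectrometry. Raw data were converted to z-scores.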

[3] = 2102EP cells, Mod Spec raw data
[4] = 2102EP, EC50, 16 h, vs solvent control

CCCc1cc(C)[nH]c(=O)c1CNC(=O)c1cc(-c2ccnc(N3CCN(C)CC3)c2)cc2c1cnn2C(C)C [GSK343]
pEC50 (GCT cell lines; cell line not stated, read-out: EC50 concentration used for low dose qRT-PCR): 4.97 | pEC50 (GCT cell lines; first pre-screen, XTT, read-out: EC50): ≥ 4.30 | pEC50 (TCam-2 (SE)): 4.30 to 6.00 | pEC50 [1]: 4.98 | apoptosis induction in GCT72 (YST (GCT72)): negligible | apoptosis induction in 2102EP-R (2102EP-R): did not induce apoptosis | H1.4: K25AC, % of peptide pool [2, 3]: 0.006216% | H1.4: K25ME1, % of peptide pool [2, 3]: 2.263% | H1.4: K25ME2, % of peptide pool [2, 3]: 0.05379% | H1.4: K25ME3, % of peptide pool [2, 3]: 0.00622% | H1.4: K25UN, % of peptide pool [2, 3]: 97.6705% | H2A1: K13AC, % of peptide pool [2, 3]: 0.008349% | H2A1: K13UN, % of peptide pool [2, 3]: 99.9917% | H2A1: K15AC, % of peptide pool [2, 3]: 0.01155% | H2A1: K15UB, % of peptide pool [2, 3]: 0% | H2A1: K15UN, % of peptide pool [2, 3]: 99.9884% | H2A3: K13AC, % of peptide pool [2, 3]: 0.06695% | H2A3: K13UN, % of peptide pool [2, 3]: 99.933% | H2A3: K15AC, % of peptide pool [2, 3]: 0.06714% | H2A3: K15UB, % of peptide pool [2, 3]: 0% | H2A3: K15UN, % of peptide pool [2, 3]: 99.9329% | H2A: K5AC, % of peptide pool [2, 3]: 13.1006% | H2A: K5UN, % of peptide pool [2, 3]: 86.8994% | H2A: K9AC, % of peptide pool [2, 3]: 1.639% | H2A: K9UN, % of peptide pool [2, 3]: 98.3613% | H2A: K36AC, % of peptide pool [2, 3]: 0.03993% | H2A: K36UN, % of peptide pool [2, 3]: 99.9601% | H3: K9AC, % of peptide pool [2, 3]: 0.6993% | H3: K9ME1, % of peptide pool [2, 3]: 34.216% | H3: K9ME2, % of peptide pool [2, 3]: 32.7434% | H3: K9ME3, % of peptide pool [2, 3]: 3.375% | H3: K9UN, % of peptide pool [2, 3]: 28.9663% | H3: K14AC, % of peptide pool [2, 3]: 31.7092% | H3: K14UN, % of peptide pool [2, 3]: 68.2908% | H3: K18AC, % of peptide pool [2, 3]: 12.5517% | H3: K18ME1, % of peptide pool [2, 3]: 0.1858% | H3: K18UN, % of peptide pool [2, 3]: 87.2625% | H3: K23AC, % of peptide pool [2, 3]: 21.2228% | H3: K23ME1, % of peptide pool [2, 3]: 0.01722% | H3: K23UN, % of peptide pool [2, 3]: 78.76% | H3: K56AC, % of peptide pool [2, 3]: 0.2947% | H3: K56ME1, % of peptide pool [2, 3]: 0.4365% | H3: K56UN, % of peptide pool [2, 3]: 99.2689% | H3: K64AC, % of peptide pool [2, 3]: 0.01667% | H3: K64UN, % of peptide pool [2, 3]: 99.9833% | H3: K79AC, % of peptide pool [2, 3]: 0.7184% | H3: K79ME1, % of peptide pool [2, 3]: 16.7848% | H3: K79ME2, % of peptide pool [2, 3]: 6.651% | H3: K79ME3, % of peptide pool [2, 3]: 10.1333% | H3: K79UN, % of peptide pool [2, 3]: 65.7124% | H3: K122AC, % of peptide pool [2, 3]: 0.136% | H3: K122UN, % of peptide pool [2, 3]: 99.864% | H3: Q19ME1, % of peptide pool [2, 3]: 0.007707% | H3: Q19UN, % of peptide pool [2, 3]: 99.9923% | H3: Q55ME1, % of peptide pool [2, 3]: 0.1478% | H3: Q55UN, % of peptide pool [2, 3]: 99.8522% | H3: R42ME2, % of peptide pool [2, 3]: 3.196% | H3: R42UN, % of peptide pool [2, 3]: 96.8039% | H3: R49ME2, % of peptide pool [2, 3]: 7.636% | H3: R49UN, % of peptide pool [2, 3]: 92.3639% | H3R2UN: K4AC, % of peptide pool [2, 3]: 0.06759% | H3R2UN: K4ME1, % of peptide pool [2, 3]: 18.4584% | H3R2UN: K4ME2, % of peptide pool [2, 3]: 0.1346% | H3R2UN: K4ME3, % of peptide pool [2, 3]: 0.0559% | H3R2UN: K4UN, % of peptide pool [2, 3]: 81.2835% | H3R2UN: Q5ME1, % of peptide pool [2, 3]: 0.1125% | H3R2UN: Q5UN, % of peptide pool [2, 3]: 99.8875% | H3.1: K27AC, % of peptide pool [2, 3]: 2.595% | H3.1: K27ME1, % of peptide pool [2, 3]: 48.9633% | H3.1: K27ME2, % of peptide pool [2, 3]: 15.6374% | H3.1: K27ME3, % of peptide pool [2, 3]: 2.258% | H3.1: K27UN, % of peptide pool [2, 3]: 30.5467% | H3.1: K36AC, % of peptide pool [2, 3]: 0.2238% | H3.1: K36ME1, % of peptide pool [2, 3]: 13.8902% | H3.1: K36ME2, % of peptide pool [2, 3]: 50.2838% | H3.1: K36ME3, % of peptide pool [2, 3]: 20.6064% | H3.1: K36UN, % of peptide pool [2, 3]: 14.9959% | H3.3: K27AC, % of peptide pool [2, 3]: 7.138% | H3.3: K27M, % of peptide pool [2, 3]: 0% | H3.3: K27ME1, % of peptide pool [2, 3]: 44.2688% | H3.3: K27ME2, % of peptide pool [2, 3]: 12.6213% | H3.3: K27ME3, % of peptide pool [2, 3]: 4.2957% | H3.3: K27UN, % of peptide pool [2, 3]: 31.6757% | H3.3: K36AC, % of peptide pool [2, 3]: 3.015% | H3.3: K36ME1, % of peptide pool [2, 3]: 12.2658% | H3.3: K36ME2, % of peptide pool [2, 3]: 51.706% | H3.3: K36ME3, % of peptide pool [2, 3]: 19.9849% | H3.3: K36UN, % of peptide pool [2, 3]: 13.0282% | H4: K5AC, % of peptide pool [2, 3]: 7.684% | H4: K5UN, % of peptide pool [2, 3]: 92.3159% | H4: K8AC, % of peptide pool [2, 3]: 10.6823% | H4: K8UN, % of peptide pool [2, 3]: 89.3177% | H4: K12AC, % of peptide pool ([2]; 2102EP cells, Mod Spec raw data, histone H4 K12 acetylated): 6.039 % of peptide pool | H4: K12UN, % of peptide pool ([2]; 2102EP cells, Mod Spec raw data, histone H4 K12 unmodified): 93.9609 % of peptide pool | H4: K16AC, % of peptide pool ([2]; 2102EP cells, Mod Spec raw data, histone H4 K16 acetylated): 41.5696 % of peptide pool | H4: K16UN, % of peptide pool ([2]; 2102EP cells, Mod Spec raw data, histone H4 K16 unmodified): 58.4304 % of peptide pool | H4: K20AC, % of peptide pool ([2]; 2102EP cells, Mod Spec raw data, histone H4 K20 acetylated): 21.2904 % of peptide pool | H4: K20ME2, % of peptide pool ([2]; 2102EP cells, Mod Spec raw data, histone H4 K20 dimethylated): 42.0499 % of peptide pool | H4: K20ME1, % of peptide pool ([2]; 2102EP cells, Mod Spec raw data, histone H4 K20 monomethylated): 3.554 % of peptide pool | H4: K20ME3, % of peptide pool ([2]; 2102EP cells, Mod Spec raw data, histone H4 K20 trimethylated): 1.778 % of peptide pool | H4: K20UN, % of peptide pool ([2]; 2102EP cells, Mod Spec raw data, histone H4 K20 unmodified): 31.3272 % of peptide pool | change of histone modifications of the expected mode of action (Mod Spec) [2, 4]: decreased H3K27 methylation | off-target changes of histone modifications (Mod Spec) [2, 4]: increase of H4K20ac
